Results: patent US20060252774A1, “Regulation of type 5 adenylyl cyclase for treatment of neurodegenerative and cardiac diseases” (priority 2002, published 2006)
Entries after “also recorded” stand apart in the source; their conditions may differ. Values belong to the compound of their own block, whether it stands above or below them.

Assays:
AC3 [1] = biological target: T1, AC3 (Rattus norvegicus, UniProt P21932); experiment: Adenyl cyclase stimulation by forskolin derivatives, High five cell membranes overexpressing type III; assay type: biochemical; details: 5 mM MgCl2
T1 sequence (P21932 1-1144): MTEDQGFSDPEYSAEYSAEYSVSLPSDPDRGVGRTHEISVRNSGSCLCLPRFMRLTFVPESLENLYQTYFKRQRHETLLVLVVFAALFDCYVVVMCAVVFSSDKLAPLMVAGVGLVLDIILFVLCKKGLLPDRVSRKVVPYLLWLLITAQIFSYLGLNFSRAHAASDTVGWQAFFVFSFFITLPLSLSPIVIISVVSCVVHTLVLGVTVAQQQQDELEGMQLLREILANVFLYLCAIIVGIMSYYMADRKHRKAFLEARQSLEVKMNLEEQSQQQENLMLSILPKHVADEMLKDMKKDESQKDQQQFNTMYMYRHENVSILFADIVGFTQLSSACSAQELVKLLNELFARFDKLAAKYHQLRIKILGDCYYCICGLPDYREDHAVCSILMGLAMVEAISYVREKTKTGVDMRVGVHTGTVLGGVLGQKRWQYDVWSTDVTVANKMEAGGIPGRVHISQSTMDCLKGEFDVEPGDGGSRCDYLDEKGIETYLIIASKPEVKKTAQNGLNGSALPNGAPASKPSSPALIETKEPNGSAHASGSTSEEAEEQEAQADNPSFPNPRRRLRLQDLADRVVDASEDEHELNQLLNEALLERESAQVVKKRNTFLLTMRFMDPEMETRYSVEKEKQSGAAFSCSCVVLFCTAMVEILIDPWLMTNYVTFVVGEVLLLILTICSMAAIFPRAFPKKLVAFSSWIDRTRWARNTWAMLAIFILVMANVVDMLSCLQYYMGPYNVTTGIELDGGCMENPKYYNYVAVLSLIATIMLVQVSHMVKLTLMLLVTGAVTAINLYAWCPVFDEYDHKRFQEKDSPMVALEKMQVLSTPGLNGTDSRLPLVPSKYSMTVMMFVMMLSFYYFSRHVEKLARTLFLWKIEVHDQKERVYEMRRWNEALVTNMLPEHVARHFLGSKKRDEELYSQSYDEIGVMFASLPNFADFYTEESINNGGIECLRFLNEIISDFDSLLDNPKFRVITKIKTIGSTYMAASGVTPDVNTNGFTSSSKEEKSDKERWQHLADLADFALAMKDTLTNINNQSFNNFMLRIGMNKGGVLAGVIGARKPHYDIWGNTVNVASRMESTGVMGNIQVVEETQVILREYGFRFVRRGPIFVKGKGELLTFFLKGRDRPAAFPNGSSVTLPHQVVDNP
Procedure: (§1) FIG. 15: Effect of forskolin, 6[3-(dimethylamino)propionyl]-14,15-dihydroforskolin, and NKH477 on adenyl cyclase [isforms.] isoforms: Forskolin derivatives dose response effect (A-C). High five cell membranes overexpressing type II (A), type III (B), and type V (C) adenyl cyclases. Adenyl cyclase activity was measured in the presence of 5 mM of MgCl2 with various concentrations of forskolin (closed circles), 6[3-(dimethylamino)propionyl]-14,15-dihydroforskolin (D, open triangles) or NKH477 (open circles). Means±SEM from 4 independent experiments are shown. *, p<0.01 differences from the value with forskolin.

AC2 [2] = biological target: T2, AC2 (Rattus norvegicus, UniProt P26769); experiment: Adenyl cyclase stimulation by forskolin derivatives, High five cell membranes overexpressing type II; assay type: biochemical; parameters: made in house; host or cells: High Five insect cells (membranes); details: 5 mM MgCl2
Procedure: as §1

AC5 [3] = biological target: T3, AC5 (Canis lupus familiaris, UniProt P30803); experiment: Adenyl cyclase stimulation by forskolin derivatives, High five cell membranes overexpressing type V; assay type: biochemical; parameters: made in house; host or cells: High Five insect cells (membranes)
Procedure: as §1

AC5 [4] = biological target: T3, AC5; parameters: made in house; host or cells: High Five insect cells (membranes); details: previously reported; potency on AC2 and AC3 remained similar; cited from earlier work
AC5 [5] = experiment: AC catalytic activity inhibition, AC5 isoform; assay type: biochemical; details: for selectivity ratio between AC5 and AC2: inhibition of AC catalytic activity
From the text: (§2) FIG. 11. […] The relative inhibitory activity versus control (% control activity) for various AC isoforms are shown. Data are means±S.D. of quadruplicate determinations.
(§3) Classic inhibitors of AC include adenosine analogs or P-site inhibitors, and MDL12330A, a non-nucleic acid inhibitor. However, not much was known about the isoform selectivity of these inhibitors. […] It was previously noted that AC2 was less sensitive to THFA than the other isoforms, giving a selectivity ratio of 1.8 when compared between AC6 and AC2.
(§4) Inventors will first determine the selectivity among the AC isoforms (FIG. 12). […] The IC50 values were calculated to be 0.32 micro M for AC5, 11.1 micro M for AC3, 65.3 micro M for AC2. The selectivity ratio of HI30435 was 207 between AC5 and AC2. […] The selectivity ratio was 18 between AC5 and AC2.

AC3 [6] = biological target: T1, AC3; experiment: AC catalytic activity inhibition, AC3 isoform; assay type: biochemical; details: for IC50: 5 mM MgCl2 with Gsalpha/GTPgammaS/forskolin (50 micro M)
From the text: (§5) Classic inhibitors of AC include adenosine analogs or P-site inhibitors, and MDL12330A, a non-nucleic acid inhibitor.
(§6) Inventors will first determine the selectivity among the AC isoforms (FIG. 12).

AC2 [7] = biological target: T2, AC2; experiment: AC catalytic activity inhibition, AC2 isoform; assay type: biochemical
From the text: as §5, §6

H9C2 cells = experiment: cAMP accumulation in H9C2 cells; assay type: cell-based; details: 10 micro M forskolin and isoproterenol; compound 10 micro M
Procedure: FIG. 10: Effect of NKY80 and HI30435 on cAMP accumulation in H9C2 cells.[:] H9C2 cells were incubated in the presence of 10 micro M forskolin and isoproterenol and NKY80 or HI30435 (10 micro M), followed by cAMP accumulation assays (n=4-5, p<0.01).
as §4

AC5 [8] = biological target: T3, AC5; experiment: AC catalytic activity inhibition, AC5 isoform; assay type: biochemical; parameters: IC50 for AC5; other: 5 mM MgCl2 with Gsalpha/GTPgammaS/forskolin (50 micro M); other: in the presence of Gsalpha/GTPgammaS/forskolin; other: 10 micro M; details: for IC50: 5 mM MgCl2 with Gsalpha/GTPgammaS/forskolin (50 micro M)
From the text: as §2, §3, §4

striatal AC = experiment: D1 or D2 receptor agonist-stimulated AC activity in striatal membrane preparations; assay type: biochemical, mouse; details: WT striatal membranes; 1 μM
Procedure: AC catalytic activity was compared as previously described (15) using the membrane preparations from the striatum, cortex and cerebellum A). AC assays were conducted in the presence of 50 μM forskolin. […] D1 or D2 receptor agonist-stimulated AC activity was also examined (C). […] Each AC catalytic activity was compared to that in the presence of 10 μM GTP alone. Open bars, WT (^+/+); closed bars, AC5KO (^−/−). Means±SEM are shown. *p<0.05, **p<0.01, relative to ^+/+, n=4.
Striatal tissues were dissected from mice and membrane preparations were prepared for AC assays as previously described (10, 11).
We also examined receptor agonist-stimulated AC activity (FIG. 3C).

WT and AC5KO mice [9] = experiment: Locomotor activity test with dopaminergic agonists; assay type: in vivo, mouse; details: subcutaneous, SKF38393 25 or 50 mg/kg, cabergoline 0.2 or 1.0 mg/kg
Procedure: FIG. 27. Motor dysfunction in ACD-^−/− mice. Rotarod test (A)—Each mouse was placed on a 3.5-cm diameter rod covered with rubber to evaluate rotarod performance (14). Mice were left for 1 minute on the rod for habituation. The rod rotated gradually increasing from 4 to 40 rpm over the course of 5 min and the time that mice could stay on an accelerating rotarod without failing was recorded. Five trials were conducted for each individual 10-25 min apart within the dark phase of the light/dark cycle. Mice that stayed on the rotarod for >300 sec were considered complete responders, and their latencies were recorded as 300 sec. *p<0.05, relative to ^+/+; ^+/−, n=17-20. […] Locomotor activity (B) was assessed using an activity monitor equipped with photocell beams (Columbus Instruments, Ohio, USA). The number of photobeam interruptions in each perpendicular axis was recorded and totaled for 5 min. The behavior of the mice was recorded simultaneously by video camera for later analysis, and their rearing actions were counted (C). *p<0.05, relative to ^+/+, n=15-20. […] The time until it turned completely downward (open bars, Tturn) and the time until it climbed down to the floor (closed bars, TLA) were measured *p<0.01, relative to ^+/+, n=14-17. […]
FIG. 32. […] In rotarod test, the best performance out of five trials in each individual was evaluated. […]

WT and AC5KO mice [10] = experiment: Rotarod test with dopaminergic agonists; assay type: in vivo, mouse; details: WT and AC5KO; subcutaneous; 25 or 50 mg/kg
Procedure: (§7) FIG. 27. Motor dysfunction in ACD-^−/− mice. Rotarod test (A)—Each mouse was placed on a 3.5-cm diameter rod covered with rubber to evaluate rotarod performance (14). Mice were left for 1 minute on the rod for habituation. The rod rotated gradually increasing from 4 to 40 rpm over the course of 5 min and the time that mice could stay on an accelerating rotarod without failing was recorded. Five trials were conducted for each individual 10-25 min apart within the dark phase of the light/dark cycle. Mice that stayed on the rotarod for >300 sec were considered complete responders, and their latencies were recorded as 300 sec. *p<0.05, relative to ^+/+; ^+/−, n=17-20. Activity tests (B and C)—The tests were performed as previously described (14, 15). Mice were put in the darkened testing room 60 minutes for habituation before testing. Locomotor activity (B) was assessed using an activity monitor equipped with photocell beams (Columbus Instruments, Ohio, USA). The number of photobeam interruptions in each perpendicular axis was recorded and totaled for 5 min. The behavior of the mice was recorded simultaneously by video camera for later analysis, and their rearing actions were counted (C). *p<0.05, relative to ^+/+, n=15-20. Pole test (D)—In order to evaluate bradykinesia, pole test was performed (16). In brief, mice were placed head upward on the top of a rough-surfaced pole (8 mm in diameter and 50 cm in height) that was wrapped with gauze to prevent slipping. The time until it turned completely downward (open bars, Tturn) and the time until it climbed down to the floor (closed bars, TLA) were measured *p<0.01, relative to ^+/+, n=14-17. Means±SEM are shown. Homozygous to (ACD^−/−) (closed circles, ^−/−), heterozygous (shaded circles, ^+/−), and wild type (WT) (open circles, ^+/+).
(§8) FIG. 32. Effect of dopaminergic agonists on motor functions Effects of SKF38393 on locomotor activity (A), rotarod test (B), and pole test (C) were compared. […] In rotarod test, the best performance out of five trials in each individual was evaluated. […]

WT and AC5KO mice [11] = experiment: Pole test with dopaminergic agonists; assay type: in vivo, mouse; details: subcutaneous
Procedure: as §7, §8

AC6 = AC6 (Homo sapiens, UniProt O43306); details: previously noted; cited from earlier work
[12] = in the presence of Gsalpha/GTPgammaS/forskolin

T3 sequence (P30803 whole entry): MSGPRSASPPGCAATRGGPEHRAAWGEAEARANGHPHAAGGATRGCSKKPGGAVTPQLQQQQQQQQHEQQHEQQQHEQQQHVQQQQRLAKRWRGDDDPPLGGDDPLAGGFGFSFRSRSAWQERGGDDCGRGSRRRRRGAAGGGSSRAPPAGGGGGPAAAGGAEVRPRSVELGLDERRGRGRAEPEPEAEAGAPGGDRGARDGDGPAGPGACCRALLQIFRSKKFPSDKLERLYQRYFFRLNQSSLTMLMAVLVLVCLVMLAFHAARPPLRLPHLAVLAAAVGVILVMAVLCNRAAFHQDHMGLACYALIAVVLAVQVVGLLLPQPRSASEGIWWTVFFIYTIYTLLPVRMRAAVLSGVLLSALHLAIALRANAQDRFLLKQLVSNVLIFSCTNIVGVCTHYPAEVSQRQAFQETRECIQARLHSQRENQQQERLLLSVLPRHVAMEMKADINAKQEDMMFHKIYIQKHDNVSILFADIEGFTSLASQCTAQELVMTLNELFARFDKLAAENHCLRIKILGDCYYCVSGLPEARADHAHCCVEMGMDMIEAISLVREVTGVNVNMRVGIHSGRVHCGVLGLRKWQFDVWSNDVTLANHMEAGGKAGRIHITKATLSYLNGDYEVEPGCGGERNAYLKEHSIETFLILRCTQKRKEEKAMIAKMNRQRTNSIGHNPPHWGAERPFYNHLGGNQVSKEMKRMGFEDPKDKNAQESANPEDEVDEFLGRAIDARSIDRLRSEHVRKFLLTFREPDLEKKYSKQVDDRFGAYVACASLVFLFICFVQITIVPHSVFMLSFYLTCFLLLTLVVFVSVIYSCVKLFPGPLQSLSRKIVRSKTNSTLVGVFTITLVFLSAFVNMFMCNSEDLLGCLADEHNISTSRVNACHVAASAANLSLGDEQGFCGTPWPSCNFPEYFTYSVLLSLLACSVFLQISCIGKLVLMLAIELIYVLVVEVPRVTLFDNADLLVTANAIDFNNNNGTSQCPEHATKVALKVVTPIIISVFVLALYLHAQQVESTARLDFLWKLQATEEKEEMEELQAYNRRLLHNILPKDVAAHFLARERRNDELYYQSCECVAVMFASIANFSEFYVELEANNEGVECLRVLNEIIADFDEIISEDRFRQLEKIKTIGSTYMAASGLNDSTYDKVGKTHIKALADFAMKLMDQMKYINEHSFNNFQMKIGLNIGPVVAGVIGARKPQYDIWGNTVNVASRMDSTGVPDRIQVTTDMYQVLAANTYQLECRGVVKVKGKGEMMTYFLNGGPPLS
T2 sequence (P26769 whole entry): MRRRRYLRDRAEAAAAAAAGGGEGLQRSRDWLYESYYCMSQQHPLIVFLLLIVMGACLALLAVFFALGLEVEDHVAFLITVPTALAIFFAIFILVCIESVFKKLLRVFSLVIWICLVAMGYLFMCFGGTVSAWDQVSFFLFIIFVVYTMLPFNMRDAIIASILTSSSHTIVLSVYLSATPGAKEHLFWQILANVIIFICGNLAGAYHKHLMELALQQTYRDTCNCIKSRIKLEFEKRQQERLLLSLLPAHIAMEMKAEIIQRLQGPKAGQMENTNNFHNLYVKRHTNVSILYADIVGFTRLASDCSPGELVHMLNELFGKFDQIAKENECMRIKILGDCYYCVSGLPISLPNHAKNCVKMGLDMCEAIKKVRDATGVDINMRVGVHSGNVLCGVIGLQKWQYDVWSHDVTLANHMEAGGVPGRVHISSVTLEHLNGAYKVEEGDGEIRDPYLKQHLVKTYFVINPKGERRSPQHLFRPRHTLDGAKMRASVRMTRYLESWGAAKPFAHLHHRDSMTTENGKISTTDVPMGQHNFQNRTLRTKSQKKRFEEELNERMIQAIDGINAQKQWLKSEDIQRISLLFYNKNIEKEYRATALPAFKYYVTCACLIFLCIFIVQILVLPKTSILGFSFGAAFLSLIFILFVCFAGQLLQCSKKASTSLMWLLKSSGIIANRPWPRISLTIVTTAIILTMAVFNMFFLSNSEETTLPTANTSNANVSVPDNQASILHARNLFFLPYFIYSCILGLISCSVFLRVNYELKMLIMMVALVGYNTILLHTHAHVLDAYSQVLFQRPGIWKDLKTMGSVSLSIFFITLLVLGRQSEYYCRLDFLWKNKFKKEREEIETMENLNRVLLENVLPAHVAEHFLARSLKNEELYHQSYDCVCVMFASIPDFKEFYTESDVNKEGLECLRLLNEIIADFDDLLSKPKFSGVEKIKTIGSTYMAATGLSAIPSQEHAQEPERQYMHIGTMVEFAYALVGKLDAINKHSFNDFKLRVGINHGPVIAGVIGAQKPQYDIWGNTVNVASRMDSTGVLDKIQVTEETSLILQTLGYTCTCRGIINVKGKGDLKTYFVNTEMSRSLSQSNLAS
Sequence of AC6 (O43306 whole entry): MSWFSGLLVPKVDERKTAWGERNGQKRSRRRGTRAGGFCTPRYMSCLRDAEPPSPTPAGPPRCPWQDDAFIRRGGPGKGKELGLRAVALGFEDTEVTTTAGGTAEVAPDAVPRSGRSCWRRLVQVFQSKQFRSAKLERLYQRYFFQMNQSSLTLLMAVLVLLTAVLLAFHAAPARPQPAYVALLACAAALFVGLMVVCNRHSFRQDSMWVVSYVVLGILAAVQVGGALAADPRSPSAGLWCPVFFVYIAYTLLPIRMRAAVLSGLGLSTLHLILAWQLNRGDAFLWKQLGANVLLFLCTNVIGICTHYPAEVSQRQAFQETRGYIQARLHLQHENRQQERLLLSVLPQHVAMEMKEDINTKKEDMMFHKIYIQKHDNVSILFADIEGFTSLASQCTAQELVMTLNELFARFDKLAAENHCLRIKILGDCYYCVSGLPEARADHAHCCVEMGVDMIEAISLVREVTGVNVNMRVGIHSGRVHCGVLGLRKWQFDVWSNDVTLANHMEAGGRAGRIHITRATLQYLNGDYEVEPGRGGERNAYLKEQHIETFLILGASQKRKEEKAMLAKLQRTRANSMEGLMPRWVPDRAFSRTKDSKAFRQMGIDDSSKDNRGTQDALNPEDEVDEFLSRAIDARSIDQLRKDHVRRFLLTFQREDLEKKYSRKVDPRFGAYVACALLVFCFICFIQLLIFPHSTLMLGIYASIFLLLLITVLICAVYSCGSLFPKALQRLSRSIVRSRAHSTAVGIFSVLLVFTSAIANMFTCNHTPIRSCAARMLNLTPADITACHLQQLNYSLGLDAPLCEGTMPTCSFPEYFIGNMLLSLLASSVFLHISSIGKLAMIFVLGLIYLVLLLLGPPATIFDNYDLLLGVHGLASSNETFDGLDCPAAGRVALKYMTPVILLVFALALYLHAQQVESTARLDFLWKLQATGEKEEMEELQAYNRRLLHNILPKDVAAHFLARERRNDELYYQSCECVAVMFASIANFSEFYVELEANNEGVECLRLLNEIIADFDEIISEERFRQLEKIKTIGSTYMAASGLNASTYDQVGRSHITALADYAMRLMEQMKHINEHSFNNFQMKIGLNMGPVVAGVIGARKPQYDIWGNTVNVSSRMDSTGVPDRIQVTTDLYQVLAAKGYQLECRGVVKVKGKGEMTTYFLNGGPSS

Structure (SMILES): C=C[C@@]1(C)CC(=O)[C@]2(O)[C@@]3(C)[C@@H](O)CCC(C)(C)[C@@H]3[C@H](OC(=O)CCN(C)C)[C@H](OC(C)=O)[C@@]2(C)O1 [NKH477]
stimulation of AC5 (in words) (AC5 [4]): enhanced stimulation of AC5

Structure (SMILES): Nc1ncc2c(n1)CC(c1ccco1)CC2=O (centres unmarked) [NKY80, 2-amino-7-(2-furanyl)-7,8-dihydro-5(6H)-quinazolinone]
mode of inhibition (AC5 [5]; Lineweaver-Burk plot analysis): not competitive with respect to ATP or forskolin
selectivity ratio between AC5 and AC2 (AC5 [5]): 210
IC50 (AC3 [6]): 132 µM
IC50 (AC2 [7]; Gsalpha/GTPgammaS/forskolin): 1700 µM
cAMP accumulation in H9C2 cells (H9C2 cells): but not NKY80, inhibited cAMP accumulation; also recorded: did not
IC50 (AC5 [8]): 8.3 µM

Structure (SMILES): Nc1ncnc2c1ncn2C1CCCO1 (centres unmarked) [THFA, 9-(tetrahydro-2-furyl)adenine]
selectivity ratio between AC5 and AC2 (AC5 [5]): 130
IC50 (AC3 [6]): 101 µM
inhibition of AC3 (in words) (AC3 [6]; [12]): only to a modest degree
IC50 (AC2 [7]; 5 mM MgCl2 with Gsalpha/GTPgammaS/forskolin (50 micro M)): 285 µM
inhibition of AC2 (in words) (AC2 [7]; [12]): only to a modest degree
selectivity ratio between AC6 and AC2 (AC6): 1.8
IC50 (AC5 [8]): 2.2 µM
inhibition of AC5 (in words) (AC5 [8]; [12]): potently inhibited AC5

The next lines start with results.

relative potency of stimulation versus forskolin, AC3 (AC3 [1]): 31%
relative potency of stimulation versus forskolin, AC2 (AC2 [2]): 66%
relative potency of stimulation versus forskolin, AC5 (AC5 [3]; 5 mM MgCl2): 139%
Structure (SMILES): CCC1(C)CC(=O)C2(O)C(C)(O1)C(OC(C)=O)C(OC(=O)CCN(C)C)C1C(C)(C)CCC(O)C12C (centres unmarked) [6-3(dimethylaminopropionyl]-14,15-dihydroforskolin]
AC5 selectivity of stimulation (in words) (AC5 [3]; forskolin derivatives): further enhancement in selectivity for AC5

stimulation of AC activity, increase over that with 10 μM GTP (striatal AC): 40.7±2.6%
Structure (SMILES): Oc1cc2c(cc1O)C(c1ccccc1)CNCC2 (centres unmarked) [SKF38393]
locomotor activity (WT and AC5KO mice [9]): increased locomotor activity in both WT and AC5KO
rotarod performance (WT and AC5KO mice [10]): did not improve rotarod performance in both WT and AC5KO
pole test performance (WT and AC5KO mice [11]): improved pole test performance
